From patent publication US6635636B1, “Substituted 6-benzyl-4-oxopyrimidines, process for their preparation and pharmaceutical compositions containing them” (Idenix Pharmaceuticals, Inc., priority 1998, dated 2003)
Like-named read-outs stand apart in the source and are kept apart here.

Experiments:
HIV-1 (IIIB strain) = test: Anti-HIV-1 assay: inhibition of virus-induced cytopathicity in acutely infected MT-4 cells (MTT); assay type: cell-based; settings: mean of at least two separate experiments
Protocol: (§1) Compounds. Compounds were solubilized in DMSO at 200 mM and then diluted into culture medium.
(§2) Cells and viruses. MT-4, C8166, H9/IIIB and CEM cells were grown at 37° C. in a 5% CO2 atmosphere in RPMI 1640 medium, supplemented with 10% fetal calf serum (FCS), 100 UI/mL penicillin and 100 μg/mL streptomycin. Cell cultures were checked periodically for the absence of mycoplasma contamination with a MycoTect Kit (Gibco). Human immunodeficiency virus type-1 (HIV-1, IIIB strain) was obtained from supernatants of persistently infected H9/IIIB cells.
(§3) Anti-HIV assays. Activity of the compounds against HIV-1 and HIV-2 multiplication in acutely infected cells was based on the inhibition of virus-induced cytopathicity in MT-4 and C8166 cells, respectively. Briefly, 50 μL of culture medium containing 1×10^4 cells were added to each well of flat-bottom microtiter trays containing 50 μl of culture medium with or without various concentrations of the test compounds. Then 20 μL of an HIV suspension containing 100 CCID50 were added. After a 4-day incubation at 37° C., the number of viable cells was determined by the 3-(4,5-dimethylthiazol-[…])-2,5-diphenyltetrazolium bromide (MTT) method. Cytotoxicity of the compounds was evaluated in parallel with their antiviral activity. It was based on the viability of mock-infected cells, as monitored by the MTT method.

mock-infected MT-4 cells = test: Cytotoxicity: viability of mock-infected cells by the MTT method; assay type: cell-based
Protocol: as §1, §2, §3

[1] = MT-4 cells, HIV-1, MTT method, read-out: EC50 (compound dose required to achieve 50% protection of MT-4 cells from HIV-1 induced cytopathogenicity)
[2] = HIV-1 infected MT-4 cells, MTT method, read-out: EC50: compound dose required to achieve 50% protection of MT-4 cells from HIV-1 induced cytopathogenicity

| EC50 (HIV-1 (IIIB strain); [1]) [µM] | EC50 (HIV-1 (IIIB strain); [2]) [µM] | melting point [°C] | SMILES | CC50 (mock-infected MT-4 cells) [µM] |
| --- | --- | --- | --- | --- |
| 3.5 | – | – | CC1CCC(C)C(Oc2nc(Cc3ccccc3)cc(=O)[nH]2)C1 (mixture of isomers) [MC 507] | 143 |
| 6.4 | – | – | CC1CCC(Oc2nc(Cc3ccccc3)cc(=O)[nH]2)CC1C (mixture of isomers) [MC 508] | 58 |
| 30 | – | – | CC1CC(C)CC(Oc2nc(Cc3ccccc3)cc(=O)[nH]2)C1 (mixture of isomers) [MC 512] | > 200 |
| 3.5 | – | – | Cc1c(Cc2ccccc2)nc(OC2CC(C)CCC2C)[nH]c1=O (mixture of isomers) [MC 531] | 138 |
| – | 0.04 | – | CCC(C)Nc1nc(C(C)c2c(F)cccc2F)cc(=O)[nH]1 (mixture of isomers) [MC 1192] | 86 |
| > 61 | – | – | CCC(C)Sc1nc(C(c2ccccc2)c2ccccc2)cc(=O)[nH]1 (racemic) [MC 796] | 61 |
| 1.8 | – | – | CCC(C)Sc1nc(Cc2ccccc2C)cc(=O)[nH]1 (racemic) [MC 806] | > 200 |
| 0.6 | – | – | CCC(C)Sc1nc(Cc2ccc(C)cc2)cc(=O)[nH]1 (racemic) [MC 809] | 200 |
| 0.25 | – | – | CCC(C)Sc1nc(Cc2ccccc2[N+](=O)[O-])cc(=O)[nH]1 (racemic) [MC 817] | > 200 |
| 5 | – | – | CCC(C)Sc1nc(Cc2ccc(Cl)cc2)cc(=O)[nH]1 (racemic) [MC 859] | 120 |
| 1.5 | – | – | CCC(C)Sc1nc(Cc2ccc([N+](=O)[O-])cc2)cc(=O)[nH]1 (racemic) [MC 863] | 151 |
| 32 | – | – | CCC(C)Sc1nc(Cc2ccccc2C(F)(F)F)cc(=O)[nH]1 (racemic) [MC 868] | > 200 |
| 0.7 | – | – | CCC(C)Sc1nc(Cc2cccc(F)c2)cc(=O)[nH]1 (racemic) [MC 884] | > 200 |
| 8.7 | – | – | CCC(C)Sc1nc(Cc2ccc(F)cc2)cc(=O)[nH]1 (racemic) [MC 889] | > 200 |
| 0.9 | – | – | CC(C)Sc1nc(C(C)c2ccccc2)cc(=O)[nH]1 (racemic) [MC 890] | > 200 |
| 0.6 | – | – | CC(c1ccccc1)c1cc(=O)[nH]c(SC2CCCC2)n1 (racemic) [MC 892] | 159 |
| 0.4 | – | – | CCC(C)Sc1nc(Cc2cccc([N+](=O)[O-])c2)cc(=O)[nH]1 (racemic) [MC 897] | 157 |
| 0.8 | – | – | CCC(c1ccccc1)c1cc(=O)[nH]c(SC(C)C)n1 (racemic) [MC 899] | 200 |

| EC50 (HIV-1 (IIIB strain); [1]) [µM] | EC50 (HIV-1 (IIIB strain); [2]) [µM] | melting point [°C] | SMILES | CC50 (mock-infected MT-4 cells) [µM] |
| --- | --- | --- | --- | --- |
| 1 | – | – | CCC(c1ccccc1)c1cc(=O)[nH]c(SC2CCCC2)n1 (racemic) [MC 900] | > 200 |
| 1.3 | – | – | CCC(c1ccccc1)c1cc(=O)[nH]c(SC2CCCCC2)n1 (racemic) [MC 903] | > 200 |
| 25 | – | – | CCC(C)Sc1nc(Cc2ccc(C(F)(F)F)cc2)cc(=O)[nH]1 (racemic) [MC 959] | 200 |
| 25 | – | – | CCC(C)Oc1nc(Cc2c(F)cccc2F)cc(=O)[nH]1 (racemic) [MC 1114] | 130 |
| – | 0.007 | – | Cc1c(C(C)c2c(F)cccc2F)nc(SC(C)C)[nH]c1=O (racemic) [MC 1137] | 200 |
| – | 0.01 | – | Cc1c(C(C)c2c(F)cccc2F)nc(SCC(C)C)[nH]c1=O (racemic) [MC 1153] | > 200 |
| – | 0.03 | – | CNc1nc(C(C)c2c(F)cccc2F)c(C)c(=O)[nH]1 (racemic) [MC 1170] | 200 |
| – | 0.018 | – | Cc1c(C(C)c2c(F)cccc2F)nc(SC2CCCCC2)[nH]c1=O (racemic) [MC 1174] | > 200 |
| – | 0.008 | – | CCCCSc1nc(C(C)c2c(F)cccc2F)c(C)c(=O)[nH]1 (racemic) [MC 1175] | 112 |
| 0.11 | – | – | CNc1nc(C(C)c2c(F)cccc2F)cc(=O)[nH]1 (racemic) [MC 1178] | 106 |
| – | 0.02 | – | CC(c1cc(=O)[nH]c(NC2CCCCC2)n1)c1c(F)cccc1F (racemic) [MC 1180] | 56 |
| – | 0.03 | – | Cc1c(C(C)c2c(F)cccc2F)nc(NC2CCCCC2)[nH]c1=O (racemic) [MC 1181] | 58 |
| – | 0.01 | – | CCCCNc1nc(C(C)c2c(F)cccc2F)c(C)c(=O)[nH]1 (racemic) [MC 1187] | 83 |
| – | 0.03 | – | CCCCNc1nc(C(C)c2c(F)cccc2F)cc(=O)[nH]1 (racemic) [MC 1189] | 52 |
| – | 0.03 | – | CC(C)Nc1nc(C(C)c2c(F)cccc2F)cc(=O)[nH]1 (racemic) [MC 1191] | 115 |
| – | – | 115 to 117 | Cc1c(Cc2c(F)cccc2F)nc(NC2CCCC2)[nH]c1=O [MC1050, 2-Cyclopentylamino-6-(2,6-difluorophenylmethyl)-3,4-dihydro-5-methylpyrimidin-4-one] | – |
| 0.009 | – | – | Cc1c([C@@H](C)c2c(F)cccc2F)nc(SC2CCCC2)[nH]c1=O [MC 1047] | > 200 |
